Experiments:
HIV-1 Env pseudoviruses = conditions: despite low nanomolar potency; cited from earlier work
Caco-2 cell monolayer = conditions: no inhibitor; cited from earlier work
[1] = phosphate buffer, pH7.4; cited from earlier work
[2] = Cytotoxicity in TZM-bl cells; type: cell-based; conditions: human
VSV-G pseudovirus = type: cell-based; conditions: control for HIV-1 specificity
U87-CD4-CXCR4 cells = assay: Cytotoxicity in U87-CD4-CXCR4 cells; type: cell-based; conditions: at the doses used for this assay
CYP3A = assay: Cytochrome P450 inhibition CYP3A; type: in vitro ADME; conditions: human
[3] = Metabolic stability in human liver microsomes; type: in vitro ADME
Cf2Th-CCR5 cells = assay: Cytotoxicity in Cf2Th-CCR5 cells; type: cell-based
CYP450 enzymes = assay: Cytochrome P450 inhibition, set of CYP450 enzymes; type: in vitro ADME

In the case of `COc1ccnc2[nH]cc(C(=O)C(=O)N3CCN(C(=O)c4ccccc4)C[C@H]3C)c12` [BMS-378806, 4-benzoyl-1-[(4-methoxy-1H-pyrrolo-[2,3-b]pyridin-3-yl)oxoacetyl]-2-(R)-methylpiperazine], the “activity against A, C, and D subtypes” value (HIV-1 Env pseudoviruses) is given as “weaker activity”.

For `COc1cnc(-n2cnc(C)n2)c2[nH]cc(C(=O)C(=O)N3CCN(C(=O)c4ccccc4)CC3)c12` [BMS-626529], the “Caco-2 permeability mean Papp A-to-B” value (Caco-2 cell monolayer) is listed as 9.27e-06 cm/s, the “Caco-2 permeability mean Papp B-to-A” value (Caco-2 cell monolayer) is listed as 3.2e-05 cm/s and the solubility [1] is listed as 0.047 to 0.237 mg/mL.

`NC[C@H](NC(=O)c1ccc(-c2ccc(C(F)(F)F)cn2)[nH]1)c1ncc(CO)s1` [Compound 6, N-(2-Amino-1-(5-(hydroxymethyl)thiazol-2-yl)ethyl)-5-(5-(trifluoromethyl)pyridin-2-yl)-1H-pyrrole-2-carboxamide] gave a CC50 at 3 d [2] greater than 122 µM.

With `Cc1cc(-c2ccc(C(F)(F)F)cn2)[nH]c1C(=O)N[C@@H](CN)c1ncc(CO)s1` [Compound 8, N-(2-Amino-1-(5-(hydroxymethyl)thiazol-2-yl)ethyl)-3-methyl-5-(5-(trifluoromethyl)pyridin-2-yl)-1H-pyrrole-2-carboxamide] the “activity against the pseudovirus VSV-G” value (VSV-G pseudovirus) was “poorly active”, the “toxicity in the U87-CD4-CXCR4 cell line” value (U87-CD4-CXCR4 cells) was “did not induce toxicity” and the IC50 (CYP3A; probe midazolam) was greater than 100 µM. For the same compound, the IC50 (CYP3A; probe testosterone) was greater than 62.2 µM, the microsomal CLint [3] was less than 11.6 µL/min/mg and the “toxicity at the doses used in this assay” value (Cf2Th-CCR5 cells) was “did not show toxicity”. The “inhibition of CYP1A2, CYP2B6, and CYP3A” value (CYP450 enzymes; at greater than 50 μM dose levels) was “no inhibition” and the “inhibition of the other CYP450 enzymes” value (CYP450 enzymes; at the 100 μM dose level) was “No inhibitory activities”.

In the case of `NC[C@@H](NC(=O)c1ccc(-c2ccc(C(F)(F)F)cn2)[nH]1)c1ncc(C(O)CO)s1` (stereo partly shown) [Compound 13, N-(2-Amino-1-(5-(1,2-dihydroxyethyl)thiazol-2-yl)ethyl)-5-(5-(trifluoromethyl)pyridin-2-yl)-1H-pyrrole-2-carboxamide], the CC50 at 3 d [2] is reported as greater than 113 µM.

Compound `NC[C@H](NC(=O)c1ccc(-c2ccc(Cl)cn2)[nH]1)c1nc(CO)cs1` [Compound 16, N-(2-Amino-1-(4-(hydroxymethyl)thiazol-2-yl)ethyl)-5-(5-chloropyridin-2-yl)-1H-pyrrole-2-carboxamide] has a CC50 at 3 d [2] greater than 132 µM.

`NC[C@@H](NC(=O)c1ccc(-c2ccc(F)cn2)[nH]1)c1nc(CO)cs1` [Compound 17, N-(2-Amino-1-(4-(hydroxymethyl)thiazol-2-yl)ethyl)-5-(5-fluoropyridin-2-yl)-1H-pyrrole-2-carboxamide] showed a CC50 at 3 d [2] greater than 138 µM.

With `Cc1ccc(-c2ccc(C(=O)N[C@H](CN)c3nc(CO)cs3)[nH]2)nc1` [Compound 19, N-(2-Amino-1-(4-(hydroxymethyl)thiazol-2-yl)ethyl)-5-(5-methylpyridin-2-yl)-1H-pyrrole-2-carboxamide] the CC50 at 3 d [2] was greater than 140 µM.

For `NC[C@@H](NC(=O)c1ccc(-c2ccc(C(F)(F)F)cn2)[nH]1)c1nc(C(O)CO)cs1` (stereo partly shown) [Compound 29, N-(2-Amino-1-(4-(1,2-dihydroxyethyl)thiazol-2-yl)ethyl)-5-(5-(trifluoromethyl)pyridin-2-yl)-1H-pyrrole-2-carboxamide], the CC50 at 3 d [2] was greater than 113 µM.

With `Cc1cc(-c2ccc(C(F)(F)F)cn2)[nH]c1C(=O)N[C@H](CN)c1nc(CO)cs1` [Compound 33, N-(2-Amino-1-(4-(hydroxymethyl)thiazol-2-yl)ethyl)-3-methyl-5-(5-(trifluoromethyl)pyridin-2-yl)-1H-pyrrole-2-carboxamide] the “activity against the pseudovirus VSV-G” value (VSV-G pseudovirus) was “poorly active”, the “toxicity in the U87-CD4-CXCR4 cell line” value (U87-CD4-CXCR4 cells) was “did not induce toxicity” and the “toxicity at the doses used in this assay” value (Cf2Th-CCR5 cells) was “did not show toxicity”. The CC50 at 72 h [2] was 85 ± 3 µM.

`NC[C@H](NC(=O)c1ccc(-c2ccc(C(F)(F)F)cn2)[nH]1)c1nc(CO)c(CO)s1` [Compound 36, N-(2-Amino-1-(4,5-bis(hydroxymethyl)thiazol-2-yl)ethyl)-5-(5-(trifluoromethyl)pyridin-2-yl)-1H-pyrrole-2-carboxamide] gave a CC50 at 3 d [2] greater than 113 µM.

Compound `NC[C@@H](NC(=O)c1ccc(-c2ccc(Cl)nc2)[nH]1)c1nc(CO)cs1` [Compound 39, N-(2-Amino-1-(4-(hydroxymethyl)thiazol-2-yl)ethyl)-5-(6-chloropyridin-3-yl)-1H-pyrrole-2-carboxamide] has a CC50 at 3 d [2] greater than 132 µM.

`NC[C@@H](NC(=O)c1ccc(-c2ccc(C(F)(F)F)nc2)[nH]1)c1nc(CO)cs1` [Compound 41, N-(2-Amino-1-(4-(hydroxymethyl)thiazol-2-yl)ethyl)-5-(6-(trifluoromethyl)pyridin-3-yl)-1H-pyrrole-2-carboxamide] showed a CC50 at 3 d [2] greater than 122 µM.

In the case of `NC[C@H](NC(=O)c1ccc(-c2ccc(C(F)(F)F)nn2)[nH]1)c1nc(CO)cs1` [Compound 44, N-(2-Amino-1-(4-(hydroxymethyl)thiazol-2-yl)ethyl)-5-(6-(trifluoromethyl)pyridazin-3-yl)-1H-pyrrole-2-carboxamide], the CC50 at 3 d [2] is reported as greater than 73 µM.

In the case of `NC[C@@H](NC(=O)c1ccc(-c2ncc(Cl)cn2)[nH]1)c1nc(CO)cs1` [Compound 45, N-(2-Amino-1-(4-(hydroxymethyl)thiazol-2-yl)ethyl)-5-(5-chloropyrimidin-2-yl)-1H-pyrrole-2-carboxamide], the CC50 at 3 d [2] is reported as greater than 66 µM.

In the case of `COc1cc(-c2ccc(C(=O)N[C@H](CN)c3nc(CO)cs3)[nH]2)ccn1` [Compound 47, N-(2-Amino-1-(4-(hydroxymethyl)thiazol-2-yl)ethyl)-5-(2-methoxypyridin-4-yl)-1H-pyrrole-2-carboxamide], the CC50 at 3 d [2] is reported as greater than 133 µM.

Reference: paper PMC7703574 (Journal of medicinal chemistry, 2020)
